Literature values, collected in patent US20050043329A1, “Crystalline forms of valacyclovir hydrochloride” (priority 2002, published 2005).

Key:
[1] = after oral administration
[2] = after oral administration in healthy adults

absorption from the gastrointestinal tract [1]: rapidly absorbed
Compound: CC(C)[C@H](N)C(=O)OCCOCn1cnc2c(=O)[nH]c(N)nc21 [valacyclovir, 1-valine, 2-[(2-amino-1,6-dihydro-6-oxo-9H-purin-9-yl)methoxy]ethyl ester]
conversion to acyclovir [2]: converted rapidly and virtually completely
